Measured values: patent US20160318987A1 (MEDIMMUNE LIMITED, priority 2013, published 2016)
*1 amine or outer side, *2 acyl side, *3 side chain or, on linkers, in order; H or OH if unused. Where a SMILES comes first, the peptide text is derived from it. Side-chain parts run from the residue outwards. [ ]: non-standard residue; d: D form. The star is where a group is joined. X1 = CC(C)(c1ccccc1)[C@H](N[*:1])C(=O)[*:2]; γGlu = O=C(O)[C@H](CCC(=O)[*:2])N[*:1]; Palmitoyl = CCCCCCCCCCCCCCCC(=O)*; αMeF = C[C@](N)(Cc1ccccc1)C(=O)O; αMeK = C[C@](N)(CCCCN)C(=O)O; Aib = CC(C)(N)C(=O)O

Assays:
Assay type in all cases: cell-based
Details in all cases: n = 2
hGluc-R = target: T1, hGluc-R (Homo sapiens, UniProt P47871); test: cAMP functional assay, cells expressing human glucagon receptor (primary assay)
T1 construct: expressed in transfected cells
T1 sequence (P47871 26-477): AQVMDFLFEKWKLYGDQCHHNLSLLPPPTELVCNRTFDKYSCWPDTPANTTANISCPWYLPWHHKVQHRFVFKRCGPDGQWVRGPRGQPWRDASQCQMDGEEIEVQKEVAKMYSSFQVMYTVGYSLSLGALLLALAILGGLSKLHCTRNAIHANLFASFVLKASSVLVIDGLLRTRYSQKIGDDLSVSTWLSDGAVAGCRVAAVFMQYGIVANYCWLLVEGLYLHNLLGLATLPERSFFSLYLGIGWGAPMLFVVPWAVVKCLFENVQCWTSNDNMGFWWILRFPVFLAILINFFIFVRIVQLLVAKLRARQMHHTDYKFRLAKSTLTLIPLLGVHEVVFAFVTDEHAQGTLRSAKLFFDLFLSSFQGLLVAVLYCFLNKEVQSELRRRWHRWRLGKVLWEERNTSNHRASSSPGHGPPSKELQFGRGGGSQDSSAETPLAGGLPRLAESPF

hGLP-1R = target: T2, hGLP-1R (Homo sapiens, UniProt P43220); test: cAMP functional assay, cells expressing human GLP-1 receptor (primary assay)
T2 construct: expressed in transfected cells
T2 sequence (P43220 24-463): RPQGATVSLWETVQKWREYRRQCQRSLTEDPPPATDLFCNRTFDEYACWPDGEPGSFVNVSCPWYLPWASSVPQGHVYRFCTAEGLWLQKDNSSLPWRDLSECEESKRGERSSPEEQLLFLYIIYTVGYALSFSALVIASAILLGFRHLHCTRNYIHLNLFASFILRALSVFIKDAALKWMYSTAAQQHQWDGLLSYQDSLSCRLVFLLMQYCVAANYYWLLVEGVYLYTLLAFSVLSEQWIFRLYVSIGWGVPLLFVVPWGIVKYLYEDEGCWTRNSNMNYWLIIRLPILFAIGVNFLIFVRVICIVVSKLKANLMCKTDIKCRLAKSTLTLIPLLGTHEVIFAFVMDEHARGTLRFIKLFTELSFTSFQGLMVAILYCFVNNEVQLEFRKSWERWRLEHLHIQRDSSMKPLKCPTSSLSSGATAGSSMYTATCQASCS

hGIP-R = target: T3, hGIP-R (Homo sapiens, UniProt P48546); test: cAMP functional assay, cells expressing human GIP receptor (primary assay)
T3 construct: expressed in transfected cells
T3 sequence (P48546 22-466): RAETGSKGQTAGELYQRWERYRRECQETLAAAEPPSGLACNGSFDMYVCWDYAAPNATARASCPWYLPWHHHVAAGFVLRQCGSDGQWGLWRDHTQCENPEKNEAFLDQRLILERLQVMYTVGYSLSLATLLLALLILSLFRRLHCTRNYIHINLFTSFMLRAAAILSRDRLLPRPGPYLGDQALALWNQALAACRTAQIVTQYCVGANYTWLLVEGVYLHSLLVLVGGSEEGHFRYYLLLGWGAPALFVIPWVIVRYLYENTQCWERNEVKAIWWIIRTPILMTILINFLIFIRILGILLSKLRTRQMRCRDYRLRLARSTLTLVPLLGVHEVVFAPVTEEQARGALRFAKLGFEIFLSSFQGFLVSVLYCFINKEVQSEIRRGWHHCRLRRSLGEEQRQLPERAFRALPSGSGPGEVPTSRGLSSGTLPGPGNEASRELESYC

SMILES	EC50 (hGluc-R) [nM]	EC50 (hGLP-1R) [nM]	EC50 (hGIP-R) [nM]
CC[C@H](C)[C@H](NC(=O)[C@](C)(Cc1ccccc1)NC(=O)[C@H](CCC(=O)O)NC(=O)[C@H](CCCCN)NC(=O)[C@H](C)NC(=O)[C@H](C)NC(=O)[C@H](CCC(N)=O)NC(=O)CNC(=O)[C@H](CCC(=O)O)NC(=O)[C@H](CC(C)C)NC(=O)[C@](C)(Cc1ccccc1)NC(=O)[C@H](CO)NC(=O)[C@H](CO)NC(=O)[C@@H](NC(=O)[C@H](CC(=O)O)NC(=O)[C@H](CO)NC(=O)[C@@H](NC(=O)[C@](C)(Cc1ccccc1)NC(=O)[C@H](CO)NC(=O)CNC(=O)[C@H](CCC(=O)O)NC(=O)C(C)(C)NC(=O)[C@@H](N)Cc1c[nH]cn1)[C@@H](C)O)C(C)C)C(=O)N[C@@H](C)C(=O)N[C@@](C)(Cc1ccccc1)C(=O)N[C@@H](CC(C)C)C(=O)N[C@H](C(=O)N[C@@](C)(CCCCN)C(=O)NCC(=O)NCC(N)=O)C(C)C [SEQ ID NO: 45, H-(Aib)^2-EG-(S)^5-(α-MeF)^6-TSDV^10 SS-(α-MeF)^13-LE^15 GQAAK^20 E-(α-MeF)^22-IA-(α-MeF)^25 LV-(α-MeK)^28-G-(G)^30] (H-H[Aib]EGS[αMeF]TSDVSS[αMeF]LEGQAAKE[αMeF]IA[αMeF]LV[αMeK]GG-NH2)	104	0.0223	104
CCCCCCCCCCCCCCCC(=O)NCCCC[C@H](NC(=O)CNC(=O)CNC(=O)[C@](C)(CCCCN)NC(=O)[C@@H](NC(=O)[C@H](CC(C)C)NC(=O)[C@](C)(Cc1ccccc1)NC(=O)[C@H](C)NC(=O)[C@@H](NC(=O)[C@](C)(Cc1ccccc1)NC(=O)[C@H](CCC(=O)O)NC(=O)[C@](C)(CCCCN)NC(=O)[C@H](C)NC(=O)[C@H](C)NC(=O)[C@H](CCC(N)=O)NC(=O)CNC(=O)[C@H](CCC(=O)O)NC(=O)[C@H](CC(C)C)NC(=O)[C@](C)(Cc1ccccc1)NC(=O)[C@H](CO)NC(=O)[C@H](CO)NC(=O)[C@@H](NC(=O)[C@H](CC(=O)O)NC(=O)[C@H](CO)NC(=O)[C@@H](NC(=O)[C@](C)(Cc1ccccc1)NC(=O)[C@H](CO)NC(=O)CNC(=O)[C@H](CCC(=O)O)NC(=O)C(C)(C)NC(=O)[C@@H](N)Cc1c[nH]cn1)[C@@H](C)O)C(C)C)[C@@H](C)CC)C(C)C)C(N)=O [SEQ ID NO: 47, H-(Aib)^2-EG-(S)^5-(α-MeF)^6-TSDV^10 SS-(α-MeF)^13-LE^15 GQAA-(α-MeK)^20 E-(α-MeF)^22-IA-(α-MeF)^25 LV-(α-MeK)^28-G-(G)^30-K(Ε-Palm)] (H-H[Aib]EGS[αMeF]TSDVSS[αMeF]LEGQAA[αMeK]E[αMeF]IA[αMeF]LV[αMeK]GGK(Palmitoyl)-NH2)	92.7	0.105	92.7
CC[C@H](C)[C@H](NC(=O)[C@](C)(Cc1ccccc1)NC(=O)[C@H](CCC(=O)O)NC(=O)[C@H](CCCCN)NC(=O)[C@H](C)NC(=O)[C@H](C)NC(=O)[C@H](CCC(N)=O)NC(=O)CNC(=O)[C@H](CCC(=O)O)NC(=O)[C@H](CC(C)C)NC(=O)[C@](C)(Cc1ccccc1)NC(=O)[C@H](CO)NC(=O)[C@H](CO)NC(=O)[C@@H](NC(=O)[C@H](CC(=O)O)NC(=O)[C@H](CO)NC(=O)[C@@H](NC(=O)[C@](C)(Cc1ccccc1)NC(=O)[C@H](CO)NC(=O)CNC(=O)[C@H](CCC(=O)O)NC(=O)C(C)(C)NC(=O)[C@@H](N)Cc1c[nH]cn1)[C@@H](C)O)C(C)C)C(=O)N[C@@H](C)C(=O)N[C@@](C)(Cc1ccccc1)C(=O)N[C@@H](CC(C)C)C(=O)N[C@H](C(=O)N[C@@H](CCCCN)C(=O)NCC(=O)NCC(=O)N[C@@H](CO)C(=O)N[C@@H](CO)C(=O)NCC(=O)N[C@@H](CO)C(=O)N[C@@H](CO)C(=O)NCC(=O)N[C@@H](CO)C(=O)N[C@@H](CO)C(=O)NCC(=O)N[C@@H](CCCCN)C(N)=O)C(C)C [SEQ ID NO: 48, H-(Aib)^2-EG-(S)^5-(α-MeF)^6-TSDV^10 SS-(α-MeF)^13-LE^15 GQAAK^20 E-(α-MeF)^22-IA-(α-MeF)^25 LVKG-(G)^30-(SSG)3-K] (H-H[Aib]EGS[αMeF]TSDVSS[αMeF]LEGQAAKE[αMeF]IA[αMeF]LVKGGSSGSSGSSGK-NH2)	82.9	0.0238	82.9
CCCCCCCCCCCCCCCC(=O)N[C@@H](CCC(=O)NCCCC[C@H](NC(=O)CNC(=O)[C@H](CO)NC(=O)[C@H](CO)NC(=O)CNC(=O)[C@H](CO)NC(=O)[C@H](CO)NC(=O)CNC(=O)[C@H](CO)NC(=O)[C@H](CO)NC(=O)CNC(=O)CNC(=O)[C@H](CCCCN)NC(=O)[C@@H](NC(=O)[C@H](CC(C)C)NC(=O)[C@](C)(Cc1ccccc1)NC(=O)[C@H](C)NC(=O)[C@@H](NC(=O)[C@](C)(Cc1ccccc1)NC(=O)[C@H](CCC(=O)O)NC(=O)[C@H](CCCCN)NC(=O)[C@H](C)NC(=O)[C@H](C)NC(=O)[C@H](CCC(N)=O)NC(=O)CNC(=O)[C@H](CCC(=O)O)NC(=O)[C@H](CC(C)C)NC(=O)[C@](C)(Cc1ccccc1)NC(=O)[C@H](CO)NC(=O)[C@H](CO)NC(=O)[C@@H](NC(=O)[C@H](CC(=O)O)NC(=O)[C@H](CO)NC(=O)[C@@H](NC(=O)[C@](C)(Cc1ccccc1)NC(=O)[C@H](CO)NC(=O)CNC(=O)[C@H](CCC(=O)O)NC(=O)C(C)(C)NC(=O)[C@@H](N)Cc1c[nH]cn1)[C@@H](C)O)C(C)C)[C@@H](C)CC)C(C)C)C(N)=O)C(=O)O [SEQ ID NO: 49, H-(Aib)^2-EG-(S)^5-(α-MeF)^6-TSDV^10 SS-(α-MeF)^13-LE^15 GQAAK^20 E-(α-MeF)^22-IA-(α-MeF)^25 LVKG-(G)^30-(SSG)3-K(Ε-γ-E-Palm)] (H-H[Aib]EGS[αMeF]TSDVSS[αMeF]LEGQAAKE[αMeF]IA[αMeF]LVKGGSSGSSGSSGK([γGlu-Palmitoyl])-NH2)	75.9	0.00929	40.9
CC[C@H](C)[C@H](NC(=O)[C@](C)(Cc1ccccc1)NC(=O)[C@H](CCC(=O)O)NC(=O)[C@](C)(CCCCN)NC(=O)[C@H](C)NC(=O)[C@H](C)NC(=O)[C@H](CCC(N)=O)NC(=O)CNC(=O)[C@H](CCC(=O)O)NC(=O)[C@H](CC(C)C)NC(=O)[C@](C)(Cc1ccc(O)cc1)NC(=O)[C@H](CO)NC(=O)[C@H](CO)NC(=O)[C@@H](NC(=O)[C@H](CC(=O)O)NC(=O)[C@H](CO)NC(=O)[C@@H](NC(=O)[C@](C)(Cc1ccccc1)NC(=O)[C@H](CO)NC(=O)CNC(=O)[C@H](CCC(=O)O)NC(=O)C(C)(C)NC(=O)[C@@H](N)Cc1c[nH]cn1)[C@@H](C)O)C(C)C)C(=O)N[C@@H](C)C(=O)N[C@@](C)(Cc1c[nH]c2ccccc12)C(=O)N[C@@H](CC(C)C)C(=O)N[C@H](C(=O)N[C@@](C)(CCCCN)C(=O)NCC(=O)N[C@@](C)(CCCNC(=N)N)C(N)=O)C(C)C [SEQ ID NO: 57, H-(Aib)^2-EG-(S)^5-(α-MeF)^6-TSDV^10 SS-(α-MeY)^13-LE^15 GQAA-(α-MeK)^20 E-(α-MeF)^22-IA-(α-MeW)^25 LV-(α-MeK)^28-G-(α-MeR)^30]	19.9	0.0271	139
CCCCCCCCCCCCCCCC(=O)N[C@@H](CCC(=O)NCCCC[C@H](NC(=O)[C@](C)(CCCNC(=N)N)NC(=O)CNC(=O)[C@](C)(CCCCN)NC(=O)[C@@H](NC(=O)[C@H](CC(C)C)NC(=O)[C@](C)(Cc1c[nH]c2ccccc12)NC(=O)[C@H](C)NC(=O)[C@@H](NC(=O)[C@](C)(Cc1ccccc1)NC(=O)[C@H](CCC(=O)O)NC(=O)[C@](C)(CCCCN)NC(=O)[C@H](C)NC(=O)[C@H](C)NC(=O)[C@H](CCC(N)=O)NC(=O)CNC(=O)[C@H](CCC(=O)O)NC(=O)[C@H](CC(C)C)NC(=O)[C@](C)(Cc1ccc(O)cc1)NC(=O)[C@H](CO)NC(=O)[C@H](CO)NC(=O)[C@@H](NC(=O)[C@H](CC(=O)O)NC(=O)[C@H](CO)NC(=O)[C@@H](NC(=O)[C@](C)(Cc1ccccc1)NC(=O)[C@H](CO)NC(=O)CNC(=O)[C@H](CCC(=O)O)NC(=O)C(C)(C)NC(=O)[C@@H](N)Cc1c[nH]cn1)[C@@H](C)O)C(C)C)[C@@H](C)CC)C(C)C)C(N)=O)C(=O)O [SEQ ID NO: 58, H-(Aib)^2-EG-(S)^5-(α-MeF)^6-TSDV^10 SS-(α-MeY)^13-LE^15 GQAA-(α-MeK)^20 E-(α-MeF)^22-IA-(α-MeW)^25 LV-(α-MeK)^28-G-(α-MeR)^30-K(Ε-γ-E-Palm)]	105	0.0848	105
CC[C@H](C)[C@H](NC(=O)[C@@H](NC(=O)[C@H](CCC(=O)O)NC(=O)[C@H](CCCCN)NC(=O)[C@H](C)NC(=O)[C@H](C)NC(=O)[C@H](CCC(N)=O)NC(=O)CNC(=O)[C@H](CCC(=O)O)NC(=O)[C@H](CC(C)C)NC(=O)[C@@H](NC(=O)[C@H](CO)NC(=O)[C@H](CO)NC(=O)[C@@H](NC(=O)[C@H](CC(=O)O)NC(=O)[C@H](CO)NC(=O)[C@@H](NC(=O)[C@@H](NC(=O)[C@@H](NC(=O)CNC(=O)[C@H](CCC(=O)O)NC(=O)C(C)(C)NC(=O)[C@@H](N)Cc1c[nH]cn1)[C@@H](C)O)C(C)(C)c1ccccc1)[C@@H](C)O)C(C)C)C(C)(C)c1ccccc1)C(C)(C)c1ccccc1)C(=O)N[C@@H](C)C(=O)N[C@H](C(=O)N[C@@H](CC(C)C)C(=O)N[C@H](C(=O)N[C@@H](CCCCN)C(=O)NCC(=O)N[C@@H](CCCNC(=N)N)C(N)=O)C(C)C)C(C)(C)c1ccccc1 [SEQ ID NO: 62, H-(Aib)^2-EGT^5-(β, β-di-Me-Phe)^6-TSDV^10 SS-(β, β-di-Me-Phe)^13-LE^15 GQAAK^20 E-(β, β-di-Me-Phe)^22-IA-(β,β-di-Me-Phe)^25 LVKGR^30] (H-H[Aib]EGT[X1]TSDVSS[X1]LEGQAAKE[X1]IA[X1]LVKGR-NH2)	98.9	98.9	98.9
